Laboratory results from PubChem BioAssay (NCI).
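Method: 48-hour compound exposure of cells in 96-well plates, five concentrations, linear interpolation of endpoints. Here, GI50 denotes the concentration required for 50% inhibition of growth. The concentration for full growth arrest is given as TGI.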

Legend:
Assay in all cases: NCI anticancer screen, dose series, 48 h; in the data active = GI50 below about 0.43 µM; inactive = the rest
[1] = tested on: OVCAR-3 ovarian
[2] = tested on: MALME-3M melanoma
[3] = tested on: U251 CNS
[4] = tested on: RXF 393 renal
[5] = tested on: HOP-62 NSCLC
[6] = tested on: MDA-N
[7] = tested on: CCRF-CEM leukemia
[8] = tested on: EKVX NSCLC
[9] = tested on: OVCAR-5 ovarian
[10] = tested on: NCI-H460 lung
[11] = tested on: HT29 colon
[12] = tested on: MCF7 breast
[13] = tested on: 786-0 renal
[14] = tested on: NCI-H23 lung
[15] = tested on: OVCAR-4 ovarian
[16] = tested on: HL-60(TB) leukemia
[17] = tested on: NCI/ADR-RES ovarian
[18] = tested on: MOLT-4 leukemia
[19] = tested on: SR leukemia
[20] = tested on: SK-MEL-28 melanoma
[21] = tested on: TK-10 renal
[22] = tested on: M14 melanoma
[23] = tested on: SK-MEL-5 melanoma
[24] = tested on: A498 renal
[25] = tested on: CAKI-1 renal
[26] = tested on: ACHN renal
[27] = tested on: MDA-MB-231 breast
[28] = tested on: HCT-116 colon
[29] = tested on: OVCAR-8 ovarian
[30] = tested on: SF-268 CNS
[31] = tested on: DU-145 prostate
[32] = tested on: NCI-H226 lung
[33] = tested on: SF-295 CNS
[34] = tested on: NCI-H522 lung
[35] = tested on: UACC-257 melanoma
[36] = tested on: BT-549 breast
[37] = tested on: IGROV1 ovarian
[38] = tested on: RPMI-8226 leukemia
[39] = tested on: SNB-19 CNS
[40] = tested on: SNB-75 CNS
[41] = tested on: MDA-MB-435
[42] = tested on: SN12C renal
[43] = tested on: LOX IMVI melanoma
[44] = tested on: KM12 colon
[45] = tested on: COLO 205 colon
[46] = tested on: HOP-92 NSCLC
[47] = tested on: K-562 leukemia
[48] = tested on: SF-539 CNS
[49] = tested on: UO-31 renal
[50] = tested on: A549 NSCLC
[51] = tested on: SW-620 colon
[52] = tested on: PC-3 prostate
[53] = tested on: HS 578T breast
[54] = tested on: HCT-15 colon
[55] = tested on: HCC-2998 colon
[56] = tested on: UACC-62 melanoma
[57] = tested on: T-47D breast
[58] = tested on: SK-MEL-2 melanoma
[59] = tested on: SK-OV-3 ovarian

Cc1csc2c(=O)n(C3OC(CO)C(O)C3O)c(=O)[nH]c12 (configuration not stated)
> 100 µM: TGI [1] | TGI [2] | TGI [3] | TGI [4] | TGI [5] | TGI [6] | TGI [7] | TGI [8] | TGI [9] | TGI [10] | TGI [11] | TGI [12] | TGI [13] | TGI [14] | TGI [15] | TGI [16] | TGI [17] | TGI [18] | TGI [19] | TGI [20] | TGI [21] | TGI [22] | TGI [23] | TGI [24] | TGI [25] | TGI [26] | TGI [27] | TGI [28] | TGI [29] | TGI [30] | TGI [31] | TGI [32] | TGI [33] | TGI [34] | TGI [35] | TGI [36] | TGI [37] | TGI [38] | TGI [39] | TGI [40] | TGI [41] | TGI [42] | TGI [43] | TGI [44] | TGI [45] | TGI [46] | TGI [47] | TGI [48] | TGI [49] | TGI [50] | TGI [51] | TGI [52] | TGI [53]

CSc1ccc(C(=C=C=C(c2ccc(SC)s2)c2ccc(SC)s2)c2ccc(SC)s2)s1
> 10 µM: TGI [1] | TGI [3] | TGI [4] | TGI [6] | TGI [8] | TGI [9] | TGI [11] | TGI [14] | TGI [15] | TGI [17] | TGI [20] | TGI [21] | TGI [22] | TGI [54] | TGI [23] | TGI [24] | TGI [25] | TGI [26] | TGI [27] | TGI [28] | TGI [29] | TGI [30] | TGI [31] | TGI [32] | TGI [33] | TGI [37] | TGI [39] | TGI [40] | TGI [41] | TGI [42] | TGI [44] | TGI [45] | TGI [46] | TGI [48] | TGI [49] | TGI [50] | TGI [51] | TGI [52]

CN(O)c1nc(N(C)O)nc(N2CCOCC2)n1
inactive: GI50 [1] 10.2 µM | GI50 [2] 12.3 µM | GI50 [3] 1.25 µM | GI50 [4] 6.15 µM | GI50 [5] 2.27 µM | GI50 [7] 0.793 µM | GI50 [8] 1.9 µM | GI50 [9] 41.2 µM | GI50 [10] 0.8 µM | GI50 [11] 4.67 µM | GI50 [12] 3.95 µM | GI50 [55] 8.75 µM | GI50 [13] 3.47 µM | GI50 [14] 12.4 µM | GI50 [15] 2.02 µM | GI50 [16] 16 µM | GI50 [17] 2.56 µM | GI50 [18] 7.09 µM | GI50 [19] 4.01 µM | GI50 [20] 7.08 µM | GI50 [21] 5.89 µM | GI50 [22] 2.92 µM | GI50 [54] 0.637 µM | GI50 [23] 4.09 µM | GI50 [24] 14.9 µM | GI50 [25] 1.08 µM | GI50 [26] 1.1 µM | GI50 [27] 7 µM | GI50 [56] 4.12 µM | GI50 [28] 1.07 µM | GI50 [57] 8.07 µM | GI50 [29] 3.85 µM | GI50 [30] 5.7 µM | GI50 [31] 4.93 µM | GI50 [32] 7.64 µM | GI50 [33] 2.57 µM | GI50 [34] 4.03 µM | GI50 [58] 7.7 µM | GI50 [59] 12.6 µM | GI50 [35] 5.57 µM | GI50 [36] 5.34 µM | GI50 [37] 2.27 µM | GI50 [38] 3.85 µM | GI50 [39] 7.35 µM | GI50 [40] 27.2 µM | GI50 [41] 6.6 µM | GI50 [42] 7.48 µM | GI50 [43] 1.67 µM | GI50 [44] 15.5 µM | GI50 [45] 3.69 µM | GI50 [46] 8.77 µM | GI50 [47] > 100 µM | GI50 [48] 4.1 µM | GI50 [49] 2.41 µM | GI50 [50] 2.94 µM | GI50 [51] 11.2 µM | GI50 [52] 7.82 µM | GI50 [53] 64.2 µM
> 100 µM: TGI [1] | TGI [2] | TGI [3] | TGI [4] | TGI [5] | TGI [7] | TGI [8] | TGI [9] | TGI [10] | TGI [11] | TGI [12] | TGI [55] | TGI [14] | TGI [15] | TGI [16] | TGI [17] | TGI [18] | TGI [19] | TGI [20] | TGI [21] | TGI [54] | TGI [23] | TGI [24] | TGI [25] | TGI [26] | TGI [27] | TGI [56] | TGI [28] | TGI [57] | TGI [29] | TGI [30] | TGI [31] | TGI [32] | TGI [33] | TGI [34] | TGI [58] | TGI [59] | TGI [36] | TGI [37] | TGI [38] | TGI [39] | TGI [40] | TGI [41] | TGI [42] | TGI [43] | TGI [44] | TGI [45] | TGI [46] | TGI [47] | TGI [48] | TGI [49] | TGI [50] | TGI [51] | TGI [52] | TGI [53]
92.2 µM: TGI [35]
57 µM: TGI [22]
74 µM: TGI [13]
